Data taken from patent publication US9012513B2, “Antioxidant, antioxidant composition and production method therefor” (Watanabe Oyster Laboratory Co., Ltd., priority 2011, dated 2015).
“Also recorded” adds a separate entry of the source.

Assays:
[1] = tested on: cell line (C3A) in a liver; assay: oxidation of DPPP-labeled hepatocyte culture (C3A) by AAPH; type: cell-based; conditions: cultured for 5 days with the substance, compared with cell without the substance
Description: FIG. 12 illustrates the principle of the fluorescence of the diphenyl-1-pyrenlphosphine (DPPP). Using the fluorescent dye, the degree of oxidation of a cell line (C3A) in a liver was observed.
A cell where the 3,5-dihydroxy-4-methoxybenzyl alcohol according to the present invention had been added was cultured for 5 days. The cell labeled by DPPP was oxidized by 2,2′-azobis (2-methylpropionamidine)dihydrochloide, and then the fluorescence intensity of the DPPP in each cell was measured. […] It was confirmed that the antioxidant substance, 3,5-dihydroxy-4-methoxybenzyl alcohol, reduced the oxidation (see FIG. 13).

[2] = properties of the separated and purified substance (solubility); type: physicochemical
From the text: Here, the properties of 3,5-dihydroxy-4-methoxybenzyl alcohol, which was separated and purified, will be described. […] It was confirmed that the 3,5-dihydroxy-4-methoxybenzyl alcohol was a phenolic compound as illustrated in FIG. 8.

normal human LDL = assay: metal oxidation of normal human LDL by copper sulfate, quantitated by TBARS method; type: biochemical
Description: When normal human LDL is oxidized by copper sulfate, 3,5-dihydroxy-4-methoxybenzyl alcohol was added, and the degree of oxidation of the LDL was quantitated by a TBARS method (see FIG. 11). […] The Lag-time refers to a period where a rise of a curve is not observed. It is determined that, as the time increases, antioxidant activity occurs. However, the lag-time was extended by dose dependency. The lag-time was 2 hours for addition of 270 μM, 4 hours for addition of 360 μM, and 5 hours for addition of 450 μM and 540 μM.

[3] = antioxidant capacity by the ORAC method (Fluorescein, AAPH); type: biochemical
Description: The 3,5-dihydroxy-4-methoxybenzyl alcohol can be separated and purified by the following operation. First, Trolox (Wako) or a test sample of 0.05 mL dissolved in a mixed solution of 0.075 mol/L phosphoric acid buffer solution 2.3 of 5 mL, 6.3×10^−7 mol/L Fluorescein (fluorescent probe) of 0.3 mL, and 7% (w/v) methylated β-cyclodextrin (Wako) was warmed for 10 minutes at 37° C.
1.28×10^−1 mol/L2,2′-azobis(2-amidinopropane)dihydrochloride (AAPH, Wako), which has been preliminarily warmed at 37° C., was added by 0.3 mL. For example, while stirring with a stirrer, a fluorescence intensity (excitation wavelength: 493 nm, fluorescence wavelength: 515 nm) was measured for every 10 seconds and up to 5,000 seconds by a spectrofluorophotometer (FP-6500 , JASCO, Tokyo).
An antioxidant activity is indicated by length of period (for example, the horizontal axis in FIG. 5) during which a measured fluorescence value (the vertical axis in the same drawing) at the start of measurement is maintained. The longer the period, the stronger the antioxidant activity is.
Methods for measuring an antioxidant substance in a food product have been variously reported. However, all the methods have a drawback and an advantage, and therefore the method has not been standardized or determined as an official method (confirmation of validity of an analysis value). However, in the United States of America, a supplement and a beverage with an ORAC value have already been on the market. This trend is becoming a world standard. Accordingly, in this working example, the antioxidative potency is measured by the ORAC method.
A research conference that studies on employing the ORAC method as an official method (Antioxidant-Unit Research Association) has already been founded in Japan. The ORAC method has advantages in that both a soluble sample and a liposoluble sample can be measured and the above-described any organic solvent fractions can be measured. […]

COc1c(O)cc(CO)cc1O [3,5-dihydroxy-4-methoxybenzyl alcohol]
fluorescence intensity of DPPP / oxidation of C3A cell [1]: concentration dependence and low fluorescence intensity; also recorded: significantly reduced oxidation of a C3A cell; also recorded: showed an antioxidant capacity in a dose-dependent manner
solubility [2]: show lipid solubility and water solubility
lag-time of LDL oxidation (normal human LDL; addition of 270 μM): 2 h
lag-time of LDL oxidation (normal human LDL; addition of 360 μM): 4 h
lag-time of LDL oxidation (normal human LDL; addition of 450 μM): 5 h
lag-time of LDL oxidation (normal human LDL; addition of 540 μM): 5 h
effect on metal oxidation of the LDL (normal human LDL; copper sulfate, TBARS): reduced the metal oxidation of the LDL; also recorded: showed an antioxidant capacity in a dose-dependent manner
lag-time of LDL oxidation (normal human LDL; substance added at 180 μM): lag-time was not observed
ORAC value relative to that of L(+)-ascorbic acid [3]: three times
antioxidant capacity / antioxidant activity observed by the ORAC method ([3]; length of period during which the fluorescence value is maintained): high antioxidant activity was observed; also recorded: high antioxidant capacity between those of a chlorogenic acid and L(+)- the ascorbic acid
ORAC value ([3]; synthesized product): 1.47±0.40 μmoITE/μmol
